# Assay results published in article PMC12213745, “Compounds from Cyclocarya paliurus leaves inhibit binary division of methicillin-resistant Staphylococcus aureus by disrupting FtsZ dynamic” (Frontiers in Microbiology, 2025).
# Read-outs that look alike come from different tables or passages of the source.
# How the values were obtained:
# E. coli ATCC25922 = assay: MIC, broth microdilution (CLSI); format: cell-based; conditions: Escherichia coli
# From the text: (§1) Staphylococcus aureus ATCC25923 and Escherichia coli ATCC25922 were obtained from the American Type Culture Collection (ATCC, Manassas, VA, USA). The Methicillin-resistant S. aureus (MRSA) clinical isolate MRSA-4, previously confirmed as mecA-positive and characterized for its antibiotic resistance profile ([Sun et al., 2023]), was used in this study. Staphylococcus epidermidis (GDMCC 1.143), Enterococcus faecalis (GDMCC 1.164), and Salmonella enterica subsp. enterica (GDMCC 1.1114) were obtained from the Guangdong Microbial Culture Collection Center (GDMCC, Guangzhou, China). The Pseudomonas aeruginosa PA14 strain was kindly provided by Professor Min Wu (Southwest Medical University, China). All bacterial strains were routinely cultured in Mueller-Hinton broth (MHB) or Luria-Bertani (LB) broth medium at 37°C with shaking at 200 rpm. Vancomycin was purchased from Solarbio Science & Technology Co., Ltd. (Beijing, China), and oxacillin was obtained from Taiji Group Hengsheng Pharmaceutical Co., Ltd. (Chengdu, China). The polyclonal rabbit primary anti-body to FtsZ was purchased from Abcam PLC (Cambridge, UK). Alexa488-conjugated goat anti-rabbit IgG was purchased from ZSGB-BIO Biotechnology (Beijing, China). DAPI staining solution was purchased from Beyotime Biotechnology (Shanghai, China).
# (§2) The minimum inhibitory concentrations (MICs) of the test compounds (AA, MA, and UA) were determined using the standard broth microdilution method in accordance with the Clinical and Laboratory Standards Institute (CLSI) guidelines ([Humphries et al., 2021]). Bacteria were cultured in MHB or LB broth at 37°C with shaking (200 rpm) to the logarithmic phase, then diluted to a final density of 1 × 10^6 CFU/mL. Test compounds (dissolved in DMSO) and positive controls (vancomycin and oxacillin) were diluted in MHB and serially twofold diluted in 96-well plates. Each well was inoculated with 100 μL of bacterial suspension (1 × 10^6 CFU/mL), yielding a final bacterial density of 5 × 10^5 CFU/mL and a total volume of 200 μL. The final concentrations tested were 128 to 1 μg/mL for AA, MA, and UA; 16 to 0.5 μg/mL for vancomycin; and 64 to 0.0625 μg/mL for oxacillin. DMSO was used as a solvent control. Plates were incubated statically at 37°C for 18–24 h. After incubation, the OD600 was measured using a microplate reader (SpectraMax i3x, Molecular Devices, CA, USA). The MIC was defined as the lowest compound concentration that caused ≥ 90% inhibition of bacterial growth compared to the drug-free growth control. All tests were performed in three independent biological replicates.
# (§3) Following the isolation and identification of AA, MA, and UA from ECPL, we evaluated their antibacterial activity and spectrum. The MICs of the compounds were determined against MRSA-4, S. aureus ATCC25923, S. epidermidis, and E. faecalis (Gram-positive), as well as P. aeruginosa PA14, E. coli ATCC25922, and S. enterica subsp. Enterica (Gram-negative) using the standard broth microdilution method in accordance with CLSI guidelines ([Humphries et al., 2021]).
# E. faecalis = assay: MIC, broth microdilution (CLSI); format: cell-based; conditions: Enterococcus faecalis
# From the text: as §1, §2, §3
# P. aeruginosa PA14 = assay: MIC, broth microdilution (CLSI); format: cell-based; conditions: Pseudomonas aeruginosa
# From the text: as §1, §2, §3
# S. aureus ATCC25923 = assay: MIC, broth microdilution (CLSI); format: cell-based; conditions: Staphylococcus aureus
# From the text: as §1, §2, §3
# MRSA-4 [1] = assay: MIC, broth microdilution (CLSI); format: cell-based, Methicillin-resistant S. aureus; conditions: Staphylococcus aureus
# From the text: as §1, §2, §3
# MRSA-4 [2] = assay: SIM analysis of Z-ring assembly (FtsZ immunostaining); format: cell-based, Methicillin-resistant S. aureus; conditions: 1 × MIC, 4 h
# Protocol: MRSA-4 was cultured in MHB at 37°C to mid-logarithmic phase and subsequently treated with AA, MA, or UA at concentration of 1 × MIC, or with PBS as a control, for 4 h at 37°C. Following treatment, cells were harvested by centrifugation, washed once with PBS, and fixed with 4% (w/v) paraformaldehyde in PBS for 15 min at room temperature. Fixed cells were then washed twice with PBS. The pellets were resuspended in 90 μL GTE buffer (50 mM glucose, 25 mM Tris–HCl, pH 8.0, 10 mM EDTA) containing 10 μL lysozyme (3 mg/mL) and incubated for 3 min at room temperature. The suspension was applied onto poly-L-lysine-coated glass slides and allowed to adhere. After removing excess liquid, the slides were blocked with PBS containing 2% (w/v) BSA and 0.1% (v/v) Tween-20 for 15 min. Slides were incubated overnight at 4°C with polyclonal rabbit anti-FtsZ primary antibody, followed by three washes with PBST (PBS containing 0.1% Tween-20). Alexa Fluor 488-conjugated goat anti-rabbit IgG as the secondary antibody was then applied and incubated for 1 h at room temperature in the dark. After washing, nuclei were stained with DAPI for 3–5 min, followed by 2–3 times PBS washes to remove excess stain. Coverslips were mounted with 50% (v/v) glycerol in PBS and sealed with nail polish. Z-ring structures were visualized using structured illumination microscopy (N-SIM S, Nikon, Tokyo, Japan).
# Given that septum formation is orchestrated by the FtsZ-based Z-ring, we next examined whether AA, MA, and UA affect Z-ring assembly. Structured illumination microscopy (SIM) was employed to visualize FtsZ localization in MRSA-4 cells treated with each compound at 1 × MIC for 4 h.
# [3] = E. coli ATCC25922, ≥ 90% growth inhibition, 18–24 h, read-out: MIC
# [4] = E. faecalis, ≥ 90% growth inhibition, 18–24 h, read-out: MIC
# [5] = P. aeruginosa PA14, ≥ 90% growth inhibition, 18–24 h, read-out: MIC
# [6] = S. aureus ATCC25923, ≥ 90% growth inhibition, 18–24 h, read-out: MIC
# [7] = MRSA-4, ≥ 90% growth inhibition, 18–24 h, read-out: MIC
Compound,MIC (E. coli ATCC25922; [3]) [µg/mL],MIC (E. faecalis; [4]) [µg/mL],MIC (P. aeruginosa PA14; [5]) [µg/mL],MIC (S. aureus ATCC25923; [6]) [µg/mL],MIC (MRSA-4 [1]; [7]) [µg/mL],FtsZ localization / Z-ring formation (SIM) (MRSA-4 [2]),MIC (E. coli ATCC25922; ATCC25922) [µg/mL],MIC (E. faecalis) [µg/mL],MIC (P. aeruginosa PA14; PA14) [µg/mL],MIC (S. aureus ATCC25923; ATCC25923) [µg/mL],MIC (MRSA-4 [1]; MRSA) [µg/mL]
"C[C@H]1[C@H](C)CC[C@]2(C(=O)O)CC[C@]3(C)C(=CC[C@@H]4[C@@]5(C)C[C@@H](O)[C@H](O)[C@@](C)(CO)[C@@H]5CC[C@]43C)[C@H]12 [AA, asiatic acid]",> 128,16,> 128,32,32,aberrant FtsZ localization,–,–,–,–,–
"C[C@H]1[C@H](C)CC[C@]2(C(=O)O)CC[C@]3(C)C(=CC[C@@H]4[C@@]5(C)CC[C@H](O)C(C)(C)[C@@H]5CC[C@]43C)[C@H]12 [UA, ursolic acid]",> 128,2,> 128,16,8,aberrant FtsZ localization,–,–,–,–,–
"CC1(C)CC[C@]2(C(=O)O)CC[C@]3(C)C(=CC[C@@H]4[C@@]5(C)C[C@@H](O)[C@H](O)C(C)(C)[C@@H]5CC[C@]43C)[C@@H]2C1 [MA, maslinic acid]",–,–,–,–,–,aberrant FtsZ localization,> 128,4,> 128,32,32
